Measurements from ChEMBL document CHEMBL1201862, “PubChem BioAssay data set” (2004).
Calls of active or inactive are those of the source.

How the values were obtained:
[1] = HEp-2 cell cytotoxicity, dose response, cytotoxicity control for RSV inhibitor project, HTS (AID 2410); format: functional; settings: human respiratory syncytial virus
cells [2] = test: cells
Leucine aminopeptidase = biological target: T1, Leucine aminopeptidase (Plasmodium falciparum 3D7, UniProt Q8IL11); test: P. falciparum M17LAP inhibitors, primary screen, biochemical, fluorogenic H-Leu-NHMec substrate, 1536-well (AID 1619); format: functional
T1 sequence (Q8IL11 whole entry): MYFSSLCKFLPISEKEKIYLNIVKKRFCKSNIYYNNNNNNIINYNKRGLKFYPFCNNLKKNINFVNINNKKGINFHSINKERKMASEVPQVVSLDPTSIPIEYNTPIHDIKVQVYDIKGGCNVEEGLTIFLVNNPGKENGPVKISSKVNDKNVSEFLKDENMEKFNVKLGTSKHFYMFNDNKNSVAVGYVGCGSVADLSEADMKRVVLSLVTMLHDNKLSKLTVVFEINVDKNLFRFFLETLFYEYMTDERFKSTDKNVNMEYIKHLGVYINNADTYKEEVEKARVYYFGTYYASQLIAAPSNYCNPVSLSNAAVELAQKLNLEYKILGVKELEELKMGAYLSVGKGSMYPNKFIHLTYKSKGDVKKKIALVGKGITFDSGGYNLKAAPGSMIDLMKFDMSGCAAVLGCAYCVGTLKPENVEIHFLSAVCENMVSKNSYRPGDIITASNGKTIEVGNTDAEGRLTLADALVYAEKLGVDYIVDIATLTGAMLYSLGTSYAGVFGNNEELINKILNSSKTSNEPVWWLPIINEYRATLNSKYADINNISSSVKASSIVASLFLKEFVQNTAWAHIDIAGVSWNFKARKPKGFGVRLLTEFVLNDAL

Major prion protein = Major prion protein (Homo sapiens, UniProt P04156); format: functional, cell-based
cells [3] = test: cells; remark: listed apart in the source
[4] = cytotoxicity in HEK-293T cells, dose response, cytotoxicity control for BCR NF-kB inhibitor project, luminescence, B-cell screen hits (AID 489021); format: functional, cell-based;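 further: HEK-293T cells carrying an NF-kB luciferase reporter; cells exposed to compound for about 14 hours before viability readout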
[5] = inhibitors of firefly luciferase expression or activity, dose response, H4 neuroglioma cells, luminescence (AID 1990); format: functional, cell-based
[6] = Luminescence Cell-Based Dose Response HTS to Identify Inhibitors of 5'UTR Stem-Loop Driven Prion Protein mRNA Translation in H4 Neuroglioblastoma Cells. [Related pubchem assays: 1827 (Project Summary), 1813 (Primary HTS)]; format: functional
[7] = inhibitors of SNCA 5'UTR-driven reporter translation, confirmation, H4 neuroglioma cells, luminescence (AID 1988); format: functional, cell-based
Melanocortin receptor 4 = Melanocortin receptor 4 (Homo sapiens, UniProt P32245); format: functional, cell-based;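 further: Cell-based assay with luminescence read-out, confirmatory dose-response testing for agonist activity of biased ligands at MC4R; human U2OS cells with tagged receptor and beta-arrestin; potency of agonists that increase receptor coupling to beta-arrestin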
[8] = A Cell Based Secondary Assay To Explore Cytotoxicity of Compounds that Sensitize Mycobacterium Tuberculosis to Beta-Lactam Antibiotics.; format: functional
[9] = biological target: T2, Heat shock factor protein 1 (Mus musculus, UniProt P38532); test: inhibition of MG132-induced HSE-luciferase signal, confirmation, cell-based, NIH3T3, luminescence, dose retest (AID 2382); format: functional;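 further: NIH3T3 fibroblasts with HSF1-driven luciferase reporter stressed by proteasome inhibitor MG132; luminescence from HSF1-driven luciferase expression after 8 hours of MG132 stress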
T2 sequence (P38532 whole entry): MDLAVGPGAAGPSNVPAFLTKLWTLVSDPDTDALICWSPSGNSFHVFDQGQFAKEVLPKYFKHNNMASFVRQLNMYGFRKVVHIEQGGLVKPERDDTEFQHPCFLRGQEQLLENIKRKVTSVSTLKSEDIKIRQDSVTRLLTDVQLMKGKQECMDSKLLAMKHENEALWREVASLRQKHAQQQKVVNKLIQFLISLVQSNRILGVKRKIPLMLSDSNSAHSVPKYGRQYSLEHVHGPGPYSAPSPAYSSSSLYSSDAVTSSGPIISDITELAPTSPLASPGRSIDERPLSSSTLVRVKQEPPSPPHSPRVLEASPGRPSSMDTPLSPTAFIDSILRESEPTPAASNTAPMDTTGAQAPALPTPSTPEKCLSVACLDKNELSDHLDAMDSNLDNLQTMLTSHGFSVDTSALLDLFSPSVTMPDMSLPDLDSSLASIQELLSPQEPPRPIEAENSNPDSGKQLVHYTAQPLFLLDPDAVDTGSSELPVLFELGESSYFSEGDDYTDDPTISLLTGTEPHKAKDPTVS

[10] = biological target: Heat shock protein HSP 90-alpha (Homo sapiens, UniProt P07900); format: functional, organism-based
[11] = biological target: Glyceraldehyde-3-phosphate dehydrogenase (Homo sapiens, UniProt P04406)
[12] = biological target: T3, Alkaline phosphatase, tissue-nonspecific isozyme (Homo sapiens, UniProt P05186); test: human TNAP enzyme inhibitors, SAR follow-up, biochemical, luminescent, dose response (AID 1056)
T3 sequence (P05186 whole entry): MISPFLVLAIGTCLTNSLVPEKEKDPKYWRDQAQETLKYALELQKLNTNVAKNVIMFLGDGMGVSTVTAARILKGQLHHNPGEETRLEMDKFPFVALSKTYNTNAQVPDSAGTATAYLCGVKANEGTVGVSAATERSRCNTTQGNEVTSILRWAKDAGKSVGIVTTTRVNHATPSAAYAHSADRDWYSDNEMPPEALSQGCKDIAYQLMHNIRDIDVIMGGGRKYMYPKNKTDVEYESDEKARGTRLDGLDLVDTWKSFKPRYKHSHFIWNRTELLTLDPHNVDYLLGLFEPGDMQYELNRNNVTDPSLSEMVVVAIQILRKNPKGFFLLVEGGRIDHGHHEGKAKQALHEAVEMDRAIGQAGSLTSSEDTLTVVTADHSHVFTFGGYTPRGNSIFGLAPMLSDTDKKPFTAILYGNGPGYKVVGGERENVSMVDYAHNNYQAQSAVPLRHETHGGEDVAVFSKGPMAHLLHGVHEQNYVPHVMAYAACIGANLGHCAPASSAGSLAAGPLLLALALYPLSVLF

[13] = NIH-3T3 fibroblast cytotoxicity, dose response, cytotoxicity control, cell-based, fluorescence, Alamar Blue, secondary assay (AID 2327); format: functional;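 further: NIH-3T3 mouse fibroblasts cultured with fluconazole at 8 µg/mL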
[14] = C. albicans growth with fluconazole, confirmation, fluorescence, retest (AID 2467); format: functional, cell-based
[15] = inhibitors of intracellular T. cruzi replication, confirmation, NIH3T3 host cells, beta-gal luminescence (AID 2044); format: functional, cell-based;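 further: intracellular parasites grown in NIH/3T3 mouse fibroblasts as host cells; luminescent beta-galactosidase reporter signal from transgenic T. cruzi replicating inside host cells; inhibitors lower the luminescence signal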
[16] = cytotoxicity toward NIH3T3 fibroblasts, dose response, counter-screen, cell-based, ATP luminescence, mouse fibroblasts (AID 2010); format: functional;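 further: cells exposed to compound for about 90 hours before reading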
[17] = biological target: Induced myeloid leukemia cell differentiation protein Mcl-1 (Homo sapiens, UniProt Q07820); format: functional
[18] = inhibitors of HIV Env-driven cell fusion, dose response, cherry-pick (AID 652057); format: functional, cell-based
[19] = ZM109 Env clade C HIV-1 fusion inhibitors, dose response, HeLa effector, CEM target cells, luciferase, cherry-pick (AID 652058); format: functional, cell-based
[20] = off-target signal loss in HeLa-CEM21 co-culture – HeLa F-luc CTL cells, cherry-picked, counter-screen for HIV-1 Env fusion inhibitor project, dose response (AID 652040); format: functional, cell-based;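 further: potency for signal decrease marking cytotoxic or nonspecific inhibition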
[21] = inhibitors of clade B AD8 Env fusion, dose response, cell-based, cherry-pick (AID 652062); format: functional;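 further: luciferase signal from cell-cell fusion driven by HIV-1 clade B AD8 Env; potency is for inhibitors of fusion seen as a drop in luminescence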
[22] = Shn3 3'UTR reporter inhibitors, dose response, cell-based, Clone20 osteoblasts, firefly luciferase, cherry-picked (AID 624132); format: functional;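 further: firefly luciferase luminescence from reporter carrying the Shn3 3'UTR in osteoblasts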
[23] = HepG2 cell cytotoxicity, dose response, cytotoxicity control for Shn3 inhibitor project, CellTiter-Glo, cherry-picked (AID 624134); format: functional, cell-based
[24] = control 3'UTR Renilla luciferase suppression, dose response, counter-screen for Shn3 inhibitor project, cell-based, Clone20-Shn3RL, cherry-picked (AID 624133); format: functional
Cytochrome P450 3A4 = Cytochrome P450 3A4 (Homo sapiens, UniProt P08684);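 further: CYP3A4 tested as one member of a cytochrome P450 panel screen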
Paired box protein Pax-8 = Paired box protein Pax-8 (Homo sapiens, UniProt Q06710); test: inhibitors of PAX8-driven TPO luciferase reporter, dose response, RMG-I cells, cherry-pick (AID 687027); format: functional, cell-based;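 further: luciferase reporter driven by Pax8 target thyroperoxidase promoter measured by SteadyGlo luminescence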
[25] = NIH:OVCAR-3 ovarian cancer cell cytotoxicity, dose response, PAX8 inhibitor project, plate reader, dry powder samples (AID 743044); format: functional, cell-based

Compound: O=C(O)c1cccc(NC(=S)NC(=O)c2ccc(-c3ccc(Cl)cc3)o2)c1
- CC50 [1]: 27.8 µM (active)
- IC50 (cells [2]): 11.4 µM (active)

Compound: O=C(O)c1cccc(C(=O)Cc2ccccc2)c1
- IC50 (Leucine aminopeptidase): 17.5 µM (active)

Compound: O=C(CN1C(=O)c2ccccc2S1(=O)=O)NCCSCc1ccco1
- IC50 (Leucine aminopeptidase): 16.2 µM (active)

Compound: CCc1nc(SCC(=O)Nc2nc3c(s2)CCCC3)c2ccccc2n1
- IC50 (Major prion protein): 6.97 µM (active)
- IC50 (cells [3]): > 138 µM (inactive)

Compound: COc1ccc2[nH]c(C(=O)Nc3ccc(C)c(F)c3)cc2c1
- IC50 (Major prion protein): 10.5 µM (inactive)
- IC50 (cells [3]): > 138 µM (inactive)

Compound: C=CCN1C(=O)NC(=O)/C(=C(\C)NC(C)c2ccccc2)C1=O (centres undefined)
- IC50 [4]: > 80 µM (inactive)

Compound: COc1cccc(/C=C2/SC(=S)N(CCCC(=O)Nc3ccc(O)cc3)C2=O)c1
- EC50 [5]: 6.72 µM (active)
- EC50 [6]: 8.15 µM (active)
- EC50 [7]: 16.3 µM (active)
- IC50 [4]: 29 µM (inactive)
- EC50 (Melanocortin receptor 4): > 89.2 µM (inactive)

Compound: CC(C)(C)c1nn(-c2ccccc2)c2nc(O)c(CNc3ccc4c(c3)OCCO4)cc12
- CC50 [8]: > 40 µM (active)
- EC50 [9]: 83.3 µM (active)
- AC50 [10]: 8.3 µM (active)

Compound: NNC(=O)c1cc(-c2ccc(Cl)c(Cl)c2Cl)n[nH]1
- IC50 [11]: > 10 µM (inconclusive)
- IC50 [12]: 0.633 µM (active)

Compound: Cn1nc(-c2ccc(Cl)cc2)c2cc(C(=O)N3CCCC3)sc21
- IC50 [4]: > 80 µM (inactive)

Compound: Oc1ccc(N2CCN(c3ncnc4sc(-c5ccccc5)cc34)CC2)cc1
- EC50 [13]: > 160 µM (inactive)
- EC50 [14]: 1.21 µM (active)
- EC50 [15]: 3.78 µM (active)
- EC50 [16]: > 60 µM (not active)
- IC50 [17]: 1.43 µM (active)
- EC50 (Melanocortin receptor 4): > 89.2 µM (inactive)

Compound: Cn1c(=O)cc(OCCCC(=O)NCc2ccccn2)c2ccccc21
- IC50 [4]: > 80 µM (inactive)

Compound: COc1ccccc1NC(=O)Nc1ccc2c(c1)CCC2
- CC50 [1]: 46.2 µM (active)
- IC50 (cells [2]): 40.5 µM (active)

Compound: Cn1c(=O)c2nc(CNCc3ccccc3Cl)[nH]c2n(C)c1=O
- CC50 [8]: > 40 µM (active)

Compound: Cc1ccc(C2C(C#N)=C(N)SC(N)=C2C#N)cc1
- IC50 (Major prion protein): 1.86 µM (active)
- IC50 (cells [3]): > 138 µM (inactive)

Compound: CCOC(=O)[C@@H]1[C@H]2COc3ccc(Br)cc3[C@@H]2N2C(=O)N(c3ccccc3)C(=O)[C@@]12C
- AC50 [18]: 2.15 µM (active)
- AC50 [19]: 6.14 µM (active)
- AC50 [20]: 5.09 µM (active)
- AC50 [21]: 22.9 µM (active)

Compound: CN(C)S(=O)(=O)Oc1ccsc1C(=O)Nc1ccc(C(F)(F)F)cc1
- CC50 [8]: > 40 µM (active)

Compound: CC1(C)CC(=O)c2c(n[nH]c2-c2cccs2)C1
- IC50 [11]: > 10 µM (inconclusive)
- IC50 [12]: 5.65 µM (active)

Compound: O=C(Nc1nnc(SCC(=O)N2CCCCC2)s1)c1cccs1
- IC50 (Leucine aminopeptidase): 30.4 µM (active)

Compound: CCN(C(=O)c1cc2cc3ccc(C)cc3nc2o1)c1ccc(OC)cc1
- CC50 [1]: > 50 µM (active)
- IC50 (cells [2]): 33 µM (active)

Compound: COC(=O)c1ccc(C)c(NC(=O)CN2C(=O)c3ccccc3S2(=O)=O)c1
- IC50 (Leucine aminopeptidase): 10 µM (active)

Compound: Cc1c(CCO)c(O)oc2nnc(-c3ccccc3)c1-2
- IC50 [11]: > 100 µM (not active)
- IC50 [12]: > 100 µM (inactive)

Compound: Cc1cc2ncn(CC(=O)c3ccc(O)c(O)c3)c2cc1C
- IC50 [12]: > 100 µM (inactive)

Compound: Fc1cccc(Cc2c(-c3ccco3)nc3ccc(Br)cn23)c1
- IC50 (Major prion protein): 6.29 µM (active)
- IC50 (cells [3]): > 138 µM (inactive)

Compound: OC1(c2ccc(OC(F)F)cc2)CS/C(=N\c2cccnc2)N1C1CC1 (centres undefined)
- AC50 [22]: 5.4 µM (active)
- AC50 [23]: 7.56 µM (active)
- AC50 [24]: 29.4 µM (active)
- AC50 [19]: 36.4 µM (active)
- AC50 [20]: > 70 µM (inactive)
- AC50 [21]: 0.464 µM (active)
- AC50 (Cytochrome P450 3A4): 0.794 µM (inconclusive)

Compound: COc1cccc(-c2ccc3c(c2)[C@H]2[C@H](CCN2C(=O)NC2CCCCC2)[C@@H](CO)N3C)c1
- AC50 (Paired box protein Pax-8): 10.6 µM (active)
- AC50 [25]: 27.1 µM (active)

Compound: CC1CCN(C(=O)c2ncn3c2C(=O)N[C@H](C)C3)CC1
- AC50 [18]: 4.8 µM (active)
- AC50 [19]: 26.6 µM (active)
- AC50 [20]: 16.1 µM (active)
- AC50 [21]: 8.4 µM (active)

Compound: C[C@H]1CN([C@@H](C)CO)S(=O)(=O)c2ccc(C#Cc3ccc(F)cc3)cc2O[C@@H]1CN(C)C(=O)NC1CCCCC1
- AC50 (Paired box protein Pax-8): 6.32 µM (active)
- AC50 [25]: 37.8 µM (active)

Compound: CN(C)CCC/N=C/c1c(-c2ccccc2)nn(-c2nc3ccccc3s2)c1O
- IC50 [4]: > 80 µM (inactive)
